Data taken from US20260297081A1, “COMPOUNDS AND METHODS OF TREATING CANCERS” (Cullgen Inc., priority 2023, published 2026).

Molecular target: CDK4 (Homo sapiens, UniProt P11802+Q16531)
Assay: CDK4 percentage degradation in Calu-1 cells (Table 6)
Type: cell-based
Design: Cells that express cyclin D1-3 and CDK4/6 proteins were treated with heterobifunctional compounds; endogenous in cells; host or cells: Calu-1
Conditions: 16 hours; for inhibition at 0.04 µM: 40 nM; for inhibition at 0.2 µM: 200 nM
How it was run: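 Percentage degradation of Cyclin D1 and CDK4 derived from densitometry of ECL Western blots on lysates of Calu-1 cells. Treatment was 16 h with compound at either 40 nM or 200 nM.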

Chain of CDK4 (P11802 2-303 limits assumed): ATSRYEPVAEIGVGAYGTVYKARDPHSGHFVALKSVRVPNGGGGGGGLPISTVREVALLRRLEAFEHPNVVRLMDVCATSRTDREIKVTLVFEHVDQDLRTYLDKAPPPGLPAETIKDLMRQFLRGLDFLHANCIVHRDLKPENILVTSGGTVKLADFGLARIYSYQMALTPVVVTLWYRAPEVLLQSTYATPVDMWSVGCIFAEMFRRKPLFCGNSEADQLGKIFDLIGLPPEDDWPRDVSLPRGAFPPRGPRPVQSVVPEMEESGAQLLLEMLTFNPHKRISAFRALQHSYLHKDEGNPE
Chain of CDK4 (P24385 whole entry partner): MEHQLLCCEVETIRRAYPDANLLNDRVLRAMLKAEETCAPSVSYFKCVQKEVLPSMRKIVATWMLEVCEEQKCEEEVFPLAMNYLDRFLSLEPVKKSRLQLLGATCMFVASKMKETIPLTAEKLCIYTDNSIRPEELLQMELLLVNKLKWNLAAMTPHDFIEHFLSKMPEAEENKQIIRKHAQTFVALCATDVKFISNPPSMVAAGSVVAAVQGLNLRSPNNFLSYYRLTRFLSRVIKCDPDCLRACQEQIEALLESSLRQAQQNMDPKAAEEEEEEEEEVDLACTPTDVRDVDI
Chain of CDK4 (Q16531 2-1140 limits assumed): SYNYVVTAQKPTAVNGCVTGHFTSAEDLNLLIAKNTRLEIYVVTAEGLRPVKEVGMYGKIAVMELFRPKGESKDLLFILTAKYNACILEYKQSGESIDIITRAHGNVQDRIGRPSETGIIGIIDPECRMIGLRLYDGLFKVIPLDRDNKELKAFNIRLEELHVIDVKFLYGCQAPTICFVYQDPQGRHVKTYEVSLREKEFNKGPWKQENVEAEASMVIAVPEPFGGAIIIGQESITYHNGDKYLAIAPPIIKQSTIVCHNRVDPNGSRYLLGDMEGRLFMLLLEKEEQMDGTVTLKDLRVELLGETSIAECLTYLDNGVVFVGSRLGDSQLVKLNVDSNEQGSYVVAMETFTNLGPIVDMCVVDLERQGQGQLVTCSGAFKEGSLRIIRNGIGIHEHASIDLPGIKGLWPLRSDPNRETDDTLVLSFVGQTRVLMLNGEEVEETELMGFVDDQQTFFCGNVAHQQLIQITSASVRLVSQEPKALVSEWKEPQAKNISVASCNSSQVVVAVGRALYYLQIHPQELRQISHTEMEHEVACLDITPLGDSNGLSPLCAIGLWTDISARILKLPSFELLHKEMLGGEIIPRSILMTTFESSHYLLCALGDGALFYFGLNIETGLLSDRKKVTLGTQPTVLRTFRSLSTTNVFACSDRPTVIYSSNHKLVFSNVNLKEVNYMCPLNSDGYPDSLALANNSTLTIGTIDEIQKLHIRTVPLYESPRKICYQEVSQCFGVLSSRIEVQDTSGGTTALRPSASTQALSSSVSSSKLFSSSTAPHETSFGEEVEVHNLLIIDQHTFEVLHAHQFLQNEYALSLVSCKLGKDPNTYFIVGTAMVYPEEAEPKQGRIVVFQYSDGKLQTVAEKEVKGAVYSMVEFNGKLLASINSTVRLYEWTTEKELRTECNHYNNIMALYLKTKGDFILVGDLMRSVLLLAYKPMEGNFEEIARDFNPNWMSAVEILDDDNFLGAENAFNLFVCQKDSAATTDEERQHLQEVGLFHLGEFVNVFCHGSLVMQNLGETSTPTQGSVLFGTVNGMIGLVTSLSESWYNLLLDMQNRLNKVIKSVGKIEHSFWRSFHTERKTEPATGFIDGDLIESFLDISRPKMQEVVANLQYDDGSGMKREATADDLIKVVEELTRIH

Row | SMILES | inhibition at 0.04 µM [%] | inhibition at 0.2 µM [%]
1 | CNc1ccc(C(=O)Nc2ccc(N(C)C)nn2)c(NC2CCC(NC(=O)CN3CCN(c4ccc(Nc5ncc6c(C)c(C(C)=O)c(=O)n(C7CCCC7)c6n5)nc4)CC3)CC2)n1 (stereo not drawn) [CPD-130, 2-((4-(2-(4-(6-((6-Acetyl-8-cyclopentyl-5-methyl-7-oxo-7,8-dihydropyrido[2,3-d]pyrimidin-2-yl)amino)pyridin-3-yl)piperazin-1-yl)acetamido)cyclohexyl)amino)-N-(6-(dimethylamino)pyridazin-3-yl)-6-(methylamino)nicotinamide] | 50 to 80 | 50 to 80
2 | CNc1ccc(C(=O)Nc2cc(C)n(C)n2)c(NC[C@H]2CC[C@H](NC(=O)CN3CCN(c4ccc(Nc5ncc6c(C)c(C(C)=O)c(=O)n(C7CCCC7)c6n5)nc4)CC3)CC2)n1 [CPD-131, 2-(((trans-4-(2-(4-(6-((6-Acetyl-8-cyclopentyl-5-methyl-7-oxo-7,8-dihydropyrido[2,3-d]pyrimidin-2-yl)amino)pyridin-3-yl)piperazin-1-yl)acetamido)cyclohexyl)methyl)amino)-N-(1,5-dimethyl-1H-pyrazol-3-yl)-6-(methylamino)nicotinamide] | < 30 | 50 to 80
3 | CNc1ccc(C(=O)Nc2ccc(C#N)c(C3CC3)n2)c(NC2CC3(CC(NC(=O)CN4CCN(c5ccc(Nc6ncc7c(C)c(C(C)=O)c(=O)n(C8CCCC8)c7n6)nc5)CC4)C3)C2)n1 (stereo not drawn) [CPD-132, 2-((6-(2-(4-(6-((6-Acetyl-8-cyclopentyl-5-methyl-7-oxo-7,8-dihydropyrido[2,3-d]pyrimidin-2-yl)amino)pyridin-3-yl)piperazin-1-yl)acetamido)spiro[3.3]heptan-2-yl)amino)-N-(5-cyano-6-cyclopropylpyridin-2-yl)-6-(methylamino)nicotinamide] | < 30 | 50 to 80
4 | CNc1ccc(C(=O)Nc2ccc(N(C)C)nn2)c(NC2CC3(C2)CN(C(=O)N2CCN(c4ccc(Nc5ncc6c(C)c(C(C)=O)c(=O)n(C7CCCC7)c6n5)nc4)CC2)C3)n1 [CPD-133, 2-((2-(4-(6-((6-Acetyl-8-cyclopentyl-5-methyl-7-oxo-7,8-dihydropyrido[2,3-d]pyrimidin-2-yl)amino)pyridin-3-yl)piperazine-1-carbonyl)-2-azaspiro[3.3]heptan-6-yl)amino)-N-(6-(dimethylamino)pyridazin-3-yl)-6-(methylamino)nicotinamide] | 30 to 50 | 50 to 80
5 | CNc1ccc(C(=O)Nc2ccc(N(C)C)nn2)c(NC2CC3(CC(NC(=O)N4CCN(c5ccc(Nc6ncc7c(C)c(C(C)=O)c(=O)n(C8CCCC8)c7n6)nc5)CC4)C3)C2)n1 (stereo not drawn) [CPD-134, 4-(6-((6-Acetyl-8-cyclopentyl-5-methyl-7-oxo-7,8-dihydropyrido[2,3-d]pyrimidin-2-yl)amino)pyridin-3-yl)-N-(6-((3-((6-(dimethylamino)pyridazin-3-yl)carbamoyl)-6-(methylamino)pyridin-2-yl)amino)spiro[3.3]heptan-2-yl)piperazine-1-carboxamide] | < 30 | 30 to 50
6 | CNc1ccc(C(=O)Nc2ccccn2)c(NC2CC3(CC(NC(=O)CN4CCN(c5ccc(Nc6ncc7c(C)c(C(C)=O)c(=O)n(C8CCCC8)c7n6)nc5)CC4)C3)C2)n1 (stereo not drawn) [CPD-137, 2-((6-(2-(4-(6-((6-Acetyl-8-cyclopentyl-5-methyl-7-oxo-7,8-dihydropyrido[2,3-d]pyrimidin-2-yl)amino)pyridin-3-yl)piperazin-1-yl)acetamido)spiro[3.3]heptan-2-yl)amino)-6-(methylamino)-N-(pyridin-2-yl)nicotinamide] | 30 to 50 | 30 to 50
7 | CC(=O)c1c(C)c2cnc(Nc3ccc(N4CCN(CC(=O)NC5CC6(C5)CC(Nc5nc(C7CC7)ccc5C(=O)Nc5cccc(C7CC7)n5)C6)CC4)cn3)nc2n(C2CCCC2)c1=O (stereo not drawn) [CPD-138, 2-((6-(2-(4-(6-((6-Acetyl-8-cyclopentyl-5-methyl-7-oxo-7,8-dihydropyrido[2,3-d]pyrimidin-2-yl)amino)pyridin-3-yl)piperazin-1-yl)acetamido)spiro[3.3]heptan-2-yl)amino)-6-cyclopropyl-N-(6-cyclopropylpyridin-2-yl)nicotinamide] | < 30 | 30 to 50
8 | CNc1ccc(C(=O)Nc2ccc(N(C)C)nn2)c(NC2CC3(C2)CC(C(=O)N2CCN(c4ccc(Nc5ncc6c(C)c(C(C)=O)c(=O)n(C7CCCC7)c6n5)nc4)CC2)C3)n1 (stereo not drawn) [CPD-140, 2-((6-(4-(6-((6-Acetyl-8-cyclopentyl-5-methyl-7-oxo-7,8-dihydropyrido[2,3-d]pyrimidin-2-yl)amino)pyridin-3-yl)piperazine-1-carbonyl)spiro[3.3]heptan-2-yl)amino)-N-(6-(dimethylamino)pyridazin-3-yl)-6-(methylamino)nicotinamide] | < 30 | 50 to 80
9 | CC(=O)c1c(C)c2cnc(Nc3ccc(N4CCN(CC(=O)NC5CC6(C5)CC(Nc5nc(C#N)ccc5C(=O)Nc5cccc(C7CC7)n5)C6)CC4)cn3)nc2n(C2CCCC2)c1=O (stereo not drawn) [CPD-141, 2-((6-(2-(4-(6-((6-Acetyl-8-cyclopentyl-5-methyl-7-oxo-7,8-dihydropyrido[2,3-d]pyrimidin-2-yl)amino)pyridin-3-yl)piperazin-1-yl)acetamido)spiro[3.3]heptan-2-yl)amino)-6-cyano-N-(6-cyclopropylpyridin-2-yl)nicotinamide] | < 30 | < 30
10 | CC(=O)c1c(C)c2cnc(Nc3ccc(N4CCN(CC(=O)NCCCCCCCNc5nc(-c6ccc(C#N)nc6)ccc5C(=O)Nc5nc(C)c(C)s5)CC4)cn3)nc2n(C2CCCC2)c1=O [CPD-142] | < 30 | 
11 | CNc1ccc(C(=O)Nc2ccc(N(C)C)nn2)c(NCC2CCN(C(=O)CN3CCN(c4ccc(Nc5ncc6c(C)c(C(C)=O)c(=O)n(C7CCCC7)c6n5)nc4)CC3)CC2)n1 [CPD-145, 2-(((1-(2-(4-(6-((6-acetyl-8-cyclopentyl-5-methyl-7-oxo-7,8-dihydropyrido[2,3-d]pyrimidin-2-yl)amino)pyridin-3-yl)piperazin-1-yl)acetyl)piperidin-4-yl)methyl)amino)-N-(6-(dimethylamino)pyridazin-3-yl)-6-(methylamino)nicotinamide] | < 30 | 50 to 80
12 | CNc1ccc(C(=O)Nc2ccc(N(C)C)nn2)c(NC2CC3(CC(CC(=O)N4CCN(c5ccc(Nc6ncc7c(C)c(C(C)=O)c(=O)n(C8CCCC8)c7n6)nc5)CC4)C3)C2)n1 (stereo not drawn) [CPD-147, 2-((6-(2-(4-(6-((6-acetyl-8-cyclopentyl-5-methyl-7-oxo-7,8-dihydropyrido[2,3-d]pyrimidin-2-yl)amino)pyridin-3-yl)piperazin-1-yl)-2-oxoethyl)spiro[3.3]heptan-2-yl)amino)-N-(6-(dimethylamino)pyridazin-3-yl)-6-(methylamino)nicotinamide] | 30 to 50 | 50 to 80
13 | CNc1ccc(C(=O)Nc2ccc(N(C)C)nn2)c(NC2CC(CC(=O)N3CCN(c4ccc(Nc5ncc6c(C)c(C(C)=O)c(=O)n(C7CCCC7)c6n5)nc4)CC3)C2)n1 (stereo not drawn) [CPD-148, 2-((3-(2-(4-(6-((6-acetyl-8-cyclopentyl-5-methyl-7-oxo-7,8-dihydropyrido[2,3-d]pyrimidin-2-yl)amino)pyridin-3-yl)piperazin-1-yl)-2-oxoethyl)cyclobutyl)amino)-N-(6-(dimethylamino)pyridazin-3-yl)-6-(methylamino)nicotinamide] | 50 to 80 | > 80
14 | CNc1ccc(C(=O)Nc2ccc(N(C)C)nn2)c(NC2CC(NC(=O)CN3CCN(c4ccc(Nc5ncc6c(C)c(C(C)=O)c(=O)n(C7CCCC7)c6n5)nc4)CC3)C2)n1 (stereo not drawn) [CPD-149, 2-((3-(2-(4-(6-((6-acetyl-8-cyclopentyl-5-methyl-7-oxo-7,8-dihydropyrido[2,3-d]pyrimidin-2-yl)amino)pyridin-3-yl)piperazin-1-yl)acetamido)cyclobutyl)amino)-N-(6-(dimethylamino)pyridazin-3-yl)-6-(methylamino)nicotinamide] | 30 to 50 | 50 to 80
15 | CNc1ccc(C(=O)Nc2ccc(N(C)C)nn2)c(NC2CC(NC(=O)N3CCN(c4ccc(Nc5ncc6c(C)c(C(C)=O)c(=O)n(C7CCCC7)c6n5)nc4)CC3)C2)n1 (stereo not drawn) [CPD-151, 4-(6-((6-acetyl-8-cyclopentyl-5-methyl-7-oxo-7,8-dihydropyrido[2,3-d]pyrimidin-2-yl)amino)pyridin-3-yl)-N-(3-((3-((6-(dimethylamino)pyridazin-3-yl)carbamoyl)-6-(methylamino)pyridin-2-yl)amino)cyclobutyl)piperazine-1-carboxamide] | 50 to 80 | > 80
16 | CNc1ccc(C(=O)Nc2cn(C)cn2)c(NC2CC3(CC(NC(=O)CN4CCN(c5ccc(Nc6ncc7c(C)c(C(C)=O)c(=O)n(C8CCCC8)c7n6)nc5)CC4)C3)C2)n1 (stereo not drawn) [CPD-152, 2-((6-(2-(4-(6-((6-acetyl-8-cyclopentyl-5-methyl-7-oxo-7,8-dihydropyrido[2,3-d]pyrimidin-2-yl)amino)pyridin-3-yl)piperazin-1-yl)acetamido)spiro[3.3]heptan-2-yl)amino)-N-(1-methyl-1H-imidazol-4-yl)-6-(methylamino)nicotinamide] | 30 to 50 | 50 to 80
17 | CNc1ccc(C(=O)Nc2ccnn2C)c(NC2CC3(CC(NC(=O)CN4CCN(c5ccc(Nc6ncc7c(C)c(C(C)=O)c(=O)n(C8CCCC8)c7n6)nc5)CC4)C3)C2)n1 (stereo not drawn) [CPD-153, 2-((6-(2-(4-(6-((6-acetyl-8-cyclopentyl-5-methyl-7-oxo-7,8-dihydropyrido[2,3-d]pyrimidin-2-yl)amino)pyridin-3-yl)piperazin-1-yl)acetamido)spiro[3.3]heptan-2-yl)amino)-N-(1-methyl-1H-pyrazol-5-yl)-6-(methylamino)nicotinamide] | < 30 | < 30
